Assay results from US4179516A, “Ethers of 3,4-dihydro-1-benzoxepin-5-one oxime to treat intestinal disorders” (Albert Rolland, S.A., priority 1973, dated 1979).
Where two headings read alike, the source gives them in different places.

Key:
[1] = according to the authors of Collection Czechoslov. Chem. Common 37 868-886 (1972); cited from earlier work
[2] = test system: rat duodenum; test: Relaxant activity in vitro on isolated organ: decontraction (rat duodenum); details: Tyrode solution, 37° C.
Protocol: (§1) The tests were carried out on acid addition salts of the amines of the general formula.
(§2) For tests on the isolated organ: An organ fragment of rat duodenum or guinea pig ileum is kept alive in 50 ml of oxygenated and thermostatically controlled (37° C.) Tyrode solution. The activity of the compounds is tested on the spontaneous movements of the organ and the contractions produced by the addition of solution of barium chloride or acetyl choline to the bath. The movements were recorded on a DMP 4A Roucaire physiograph.

[3] = test system: guinea pig ileum; test: Relaxant activity in vitro on isolated organ: anti-acetylcholine (guinea pig ileum); details: Tyrode solution, 37° C., acetyl choline
Protocol: as §1, §2

[4] = test system: smooth intestinal muscle fibre (terminal part of the duodenum); test: In vivo relaxant activity on smooth intestinal muscle in the anaesthetised (chloralosed) dog, balloon in terminal duodenum; details: 2 mg/kg intravenously, compared with atropine
Protocol: as §1
For the in vivo tests: a balloon is introduced into the chloralosed animal at the level of the terminal part of the duodenum and the intestinal movements are recorded on a Beckman polygraph with the acid of Statham PM 97 gauge.

[5] = in vivo; details: mouse, male Swiss C.D. mice, acid addition salts
Protocol: as §1
The acute toxicity was determined in male Swiss C.D. mice weighing an average of 20 grammes, after oral administration (P.O) and intravenous administration (I.V.).

[6] = intravenous, read-out: Toxicity in mice LD50 I.V
[7] = oral, read-out: Toxicity in mice LD50 P.O.

| SMILES | spasmolytic action [1] | Minimum active dose concentration, Decontraction (rat duodenum) [2] | Minimum active dose concentration, Anti-Acetyl-Cholire (guinea pig ileum) [3] | effect as regards the reduction in muscle tone and intestinal peristalsis [4] | LD50 [5, 6] | LD50 [5, 7] |
| --- | --- | --- | --- | --- | --- | --- |
| CN(C)CCON=C1CCCOc2cc(Cl)ccc21 | weak spasmolytic action | – | – | – | – | – |
| CN1[C@@H]2CC[C@H]1C[C@@H](OC(=O)C(CO)c1ccccc1)C2 (stereo partly shown) [ATROPINE, reference compound] | – | inactive | 0.006 µg/mL | – | – | – |
| CN(C)CCON=C1CCCOc2ccc(Cl)cc21 [Example 1, 7-chloro-3,4-dihydro-1-benzoxepin-O-(dimethylaminoethyl)-5-one oxime] | – | 0.06 µg/mL | 5.5 µg/mL | comparable with or even superior to that of atropine | 32 mg/kg | 150 mg/kg |
| CCN(CC)CCO/N=C1/CCCOc2ccc(Cl)cc21 [Example 2, 7-chloro-3,4-dihydro-1-benzoxepin-O-(diethylaminoethyl)-5-one oxime: isomer with the cis configuration in relation to the benzene nucleus] | – | 0.1 µg/mL | 1 µg/mL | comparable with or even superior to that of atropine | 37 mg/kg | 420 mg/kg |
| Clc1ccc2c(c1)C(=NOCCN1CCOCC1)CCCO2 [Example 6, 7-chloro-3,4-dihydro-1-benzoxepin-O-(morpholinoethyl)-5-one oxime] | – | 0.15 µg/mL | 5.5 µg/mL | – | 120 mg/kg | > 1000 mg/kg |
| Clc1ccc2c(c1)C(=NOCCN1CCCC1)CCCO2 [Example 7, 7-chloro-3,4-dihydro-1-benzoxepin-O-(1-pyrrolidinyl-ethyl)-5-one oxime] | – | 1.5 µg/mL | 1.3 µg/mL | comparable with or even superior to that of atropine | 35 mg/kg | 450 mg/kg |
| CN(C)CCCON=C1CCCOc2ccc(Cl)cc21 [Example 8, 7-chloro-3,4-dihydro-1-benzoxepin-O-(dimethylaminopropyl)-5-one oxime] | – | 0.12 µg/mL | 3.5 µg/mL | comparable with or even superior to that of atropine | 60 mg/kg | 500 mg/kg |
| COc1ccc2c(c1)C(=NOCCN(C)C)CCCO2 [Example 9, 7-methoxy-3,4-dihydro-1-benzoxepin-O-(dimethylaminoethyl)-5-one oxime] | – | 0.12 µg/mL | 1.5 µg/mL | – | 35 mg/kg | 500 mg/kg |
| CCN(CC)CCON=C1CCCOc2ccc(OC)cc21 [Example 10, 7-methoxy-3,4-dihydro-1-benzoxepin-O-(diethylaminoethyl)-5-one oxime] | – | 0.5 µg/mL | 0.5 µg/mL | – | 45 mg/kg | 450 mg/kg |
| COc1ccc2c(c1)C(=NOCCCN(C)C)CCCO2 [Example 11] | – | 0.3 µg/mL | 2.0 µg/mL | – | – | > 1000 mg/kg |
| CCN(CC)CCON=C1CCCOc2ccc(Br)cc21 [Example 12, 7-bromo-3,4-dihydro-1-benzoxepin-O-(diethylaminoethyl)-5-one oxime] | – | 0.1 µg/mL | 1 µg/mL | comparable with or even superior to that of atropine | 40 mg/kg | 250 mg/kg |
